Test results taken from US20040116489A1, “Synthetic excitatory amino acids” (priority 2003, published 2004).

Legend:
human mGluR3 = molecular target: T1, human mGluR3 (Homo sapiens, UniProt Q14832); assay: [3H]LY341495 displacement binding, mGlu3; details: displacement of [3H]LY341495; receptors expressed in RGT cells; read-out: Ki (nM) ± SEM mGlu3, effects on [3H]LY341495 binding
T1 construct: expressed in transfected cells; host or cells: RGT cells
Protocol: (§1) To study the ability to affect receptor binding of compounds of the present invention in comparison to compounds of U.S. Pat. No. 5,958,960, displacement of a high affinity mGluR2 antagonist radioligand [^3H]LY341495 from recombinant human mGluR2 and human mGluR3 receptors expressed in RGT cells was determined.

recombinant human mGluR2 = molecular target: T2, recombinant human mGluR2 (Homo sapiens, UniProt Q14416); assay: [3H]LY341495 displacement binding, mGlu2; details: displacement of [3H]LY341495; receptors expressed in RGT cells; read-out: Ki (nM) ± SEM mGlu2, effects on [3H]LY341495 binding
T2 construct: expressed in transfected cells; host or cells: RGT cells
T2 sequence (Q14416 19-872): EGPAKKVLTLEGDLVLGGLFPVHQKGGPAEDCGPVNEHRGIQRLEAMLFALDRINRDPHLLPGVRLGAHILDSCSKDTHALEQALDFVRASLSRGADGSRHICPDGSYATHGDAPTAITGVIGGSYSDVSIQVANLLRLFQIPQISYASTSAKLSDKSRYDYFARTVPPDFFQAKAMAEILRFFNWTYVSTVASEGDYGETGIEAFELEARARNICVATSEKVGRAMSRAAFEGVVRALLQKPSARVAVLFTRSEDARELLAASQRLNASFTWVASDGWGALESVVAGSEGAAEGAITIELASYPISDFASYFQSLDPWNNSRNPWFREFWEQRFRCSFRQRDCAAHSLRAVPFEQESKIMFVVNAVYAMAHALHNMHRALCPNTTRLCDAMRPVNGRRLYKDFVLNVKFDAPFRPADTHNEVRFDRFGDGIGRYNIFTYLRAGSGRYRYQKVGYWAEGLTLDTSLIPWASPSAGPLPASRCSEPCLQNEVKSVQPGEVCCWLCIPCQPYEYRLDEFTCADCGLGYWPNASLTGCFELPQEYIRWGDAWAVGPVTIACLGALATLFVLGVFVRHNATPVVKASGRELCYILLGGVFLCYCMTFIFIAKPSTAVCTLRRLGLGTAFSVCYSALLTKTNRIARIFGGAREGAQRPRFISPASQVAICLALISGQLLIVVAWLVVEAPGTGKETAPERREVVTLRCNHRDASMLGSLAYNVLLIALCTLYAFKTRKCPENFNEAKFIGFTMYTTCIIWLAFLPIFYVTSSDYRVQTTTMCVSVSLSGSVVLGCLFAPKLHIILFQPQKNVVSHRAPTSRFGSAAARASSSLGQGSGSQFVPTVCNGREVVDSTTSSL
Protocol: as §1

[1] = molecular target: T3, recombinant mGlu2 receptors (Homo sapiens, UniProt Q14416); assay: forskolin-stimulated cAMP accumulation in cells expressing mGlu2; type: cell-based; details: for IC50: antagonist: blocks agonist induced decrease in forskolin-stimulated cAMP, read-out: IC50 (nM) ± SEM mGlu2, forskolin-stimulated cAMP accumulation; for EC50: agonist: reduces cAMP accumulation to 50% of the controls, read-out: EC50 (nM) ± SEM mGlu2, forskolin-stimulated cAMP accumulation
T3 construct: expressed in transfected cells
T3 sequence (Q14416 19-872): as above
Protocol: (§2) To study the functional effect of compounds of the present invention in comparison to compounds of U.S. Pat. No. 5,958,960, forskolin stimulated c-AMP production in cells expressing recombinant mGlu2 and mGlu3 receptors was determined. As mGlu2 and mGlu3 receptors are negatively coupled to adenyl cyclase, activity of an agonist decreases forskolin-stimulated accumulation of cyclic adenosine monophosphate (cAMP) and is reported as the concentration necessary to reduce C-AMP accumulation to 50% of the controls (EC50, nM). The activity of an anatgonist blocks the agonist induced decrease in forskolin-stimulated accumulation of cyclic adenosine monophosphate (cAMP) and is reported as the concentration necessary to inhibit the reduction of C-AMP accumulation to 50% of the controls (IC50, nM).

[2] = molecular target: T4, recombinant mGlu3 receptors (Homo sapiens, UniProt Q14832); assay: forskolin-stimulated cAMP accumulation in cells expressing mGlu3; type: cell-based; details: for IC50: antagonist: blocks agonist induced decrease in forskolin-stimulated cAMP, read-out: IC50 (nM) ± SEM mGlu3, forskolin-stimulated cAMP accumulation; for EC50: agonist: reduces cAMP accumulation to 50% of the controls, read-out: EC50 (nM) ± SEM mGlu3, forskolin-stimulated cAMP accumulation
T4 construct: expressed in transfected cells
T4 sequence (Q14832 23-879): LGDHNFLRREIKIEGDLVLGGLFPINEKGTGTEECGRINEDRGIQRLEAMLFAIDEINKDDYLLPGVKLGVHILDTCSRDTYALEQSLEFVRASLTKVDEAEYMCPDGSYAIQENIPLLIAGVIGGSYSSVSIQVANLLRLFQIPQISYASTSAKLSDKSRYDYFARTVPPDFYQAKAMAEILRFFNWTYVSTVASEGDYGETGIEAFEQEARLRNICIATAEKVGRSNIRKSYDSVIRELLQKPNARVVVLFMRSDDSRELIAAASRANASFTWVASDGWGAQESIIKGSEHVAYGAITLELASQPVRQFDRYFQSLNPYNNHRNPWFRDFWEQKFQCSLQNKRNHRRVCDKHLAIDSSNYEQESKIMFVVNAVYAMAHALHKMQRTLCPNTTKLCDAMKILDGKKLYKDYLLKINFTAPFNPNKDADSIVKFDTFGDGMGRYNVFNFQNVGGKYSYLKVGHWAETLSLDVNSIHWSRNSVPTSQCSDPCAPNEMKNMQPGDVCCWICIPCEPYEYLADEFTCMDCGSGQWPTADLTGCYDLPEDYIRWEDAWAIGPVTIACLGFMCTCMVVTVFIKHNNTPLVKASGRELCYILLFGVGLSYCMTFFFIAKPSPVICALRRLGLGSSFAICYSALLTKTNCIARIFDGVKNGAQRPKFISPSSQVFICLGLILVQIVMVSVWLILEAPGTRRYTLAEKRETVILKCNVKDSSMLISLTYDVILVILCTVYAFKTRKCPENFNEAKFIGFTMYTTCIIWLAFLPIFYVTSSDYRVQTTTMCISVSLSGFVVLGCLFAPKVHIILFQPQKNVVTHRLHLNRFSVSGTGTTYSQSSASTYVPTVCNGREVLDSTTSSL
Protocol: as §2

T1 sequence (Q14832 23-879): as above

Structure (SMILES)	Ki (human mGluR3)	Ki (recombinant human mGluR2)	IC50 [1]	IC50 [2]	EC50 [1]	EC50 [2]
N[C@@]1(C(=O)O)C[C@@H](NC(=O)c2ccccc2)[C@H]2[C@H](C(=O)O)[C@H]21 (relative stereo) [1S*, 2S*, 4R*, 5R*, 6S*) 2-Amino-4-benzoylaminobicyclo[3.1.0]hexane-2,6-dicarboxylic acid]	393 ± 17.8 nM	607 ± 10.2 nM	4060 nM	9520 nM	–	–
CC(=O)N[C@@H]1C[C@@](N)(C(=O)O)[C@@H]2[C@@H](C(=O)O)[C@@H]21 (relative stereo) [(1S*, 2S*, 4R*, 5R*, 6S*) 4-Acetylamino-2-aminobicyclo[3.1.0]hexane-2,6-dicarboxylic acid]	399 ± 67.8 nM	638 ± 59.6 nM	4300 nM	11100 nM	–	–
CC(=O)N[C@H]1C[C@@](N)(C(=O)O)[C@@H]2[C@@H](C(=O)O)[C@@H]21 (relative stereo) [Example 23, (1S*, 2S*, 4S*, 5R*, 6S*) 4-Acetylamino-2-amino-bicyclo[3.1.0]hexane-2,6-dicarboxylic acid]	214 ± 14.6 nM	772 ± 38.8 nM	–	–	1350 nM	1730 nM
N[C@@]1(C(=O)O)C[C@H](NC(=O)c2ccccc2)[C@H]2[C@H](C(=O)O)[C@H]21 (relative stereo) [Example 24, (1S*, 2S*, 4S*, 5R*, 6S*) 2-Amino-4-benzoylamino-bicyclo[3.1.0]hexane-2,6-dicarboxylic acid]	9.54 ± 0.73 nM	511 ± 89 nM	–	–	60.7 ± 1.03 nM	18.1 ± 2.87 nM

The next lines start with the values.

Ki (human mGluR3)	Ki (recombinant human mGluR2)	IC50 [1]	IC50 [2]	EC50 [1]	EC50 [2]	Structure (SMILES)
408 ± 25.4 nM	468 ± 29 nM	3220 nM	6270 nM	–	–	CNC(=O)N[C@@H]1C[C@@](N)(C(=O)O)[C@@H]2[C@@H](C(=O)O)[C@@H]21 (relative stereo) [(1S*, 2S*, 4R*, 5R*, 6S*) 2-Amino-4-(3-methylureido)bicyclo[3.1.0]hexane-2,6-dicarboxylic acid]
23 ± 2.6 nM	254 ± 10.7 nM	–	–	426 ± 41.8 nM	41.1 ± 11.1 nM	CNC(=O)N[C@H]1C[C@@](N)(C(=O)O)[C@@H]2[C@@H](C(=O)O)[C@@H]21 (relative stereo) [Example 20, (1S*, 2S*, 4S*, 5R*, 6S*) 2-Amino-4-(3-methyl-ureido)-bicyclo[3.1.0]hexane-2,6-dicarboxylic acid]
